Results taken from ChEMBL document CHEMBL4387740, “Discovery of ABT-957: 1-Benzyl-5-oxopyrrolidine-2-carboxamides as selective calpain inhibitors with enhanced metabolic stability” (Bioorg Med Chem Lett, 2019).
pIC50, pKi: −log10 of the molar value. Calls of active or inactive are those of the source. The rule behind the calls is not given here.

How the values were obtained:
[1] = test system: Hippocampus; experiment: Inhibition of NMDA-induced spectrin degradation in rat hippocampal slices; assay type: functional, tissue-based
[2] = Volume of distribution at steady state in CD-1 mouse at 2 mg/kg, iv; assay type: ADME, organism-based; details: in vivo, read-out: Vdss
[3] = Oral bioavailability in Sprague-Dawley rat at 2 mg/kg; assay type: ADME, organism-based; details: in vivo
[4] = Plasma clearance in cynomolgus monkey at 1 mg/kg, iv; assay type: ADME, organism-based, Macaca fascicularis
[5] = Metabolic stability in cynomolgus monkey liver microsomes; assay type: ADME, Macaca fascicularis, Microsome
[6] = Elimination half life in Sprague-Dawley rat at 2 mg/kg, po; assay type: ADME, organism-based; details: in vivo, read-out: beta t1/2 (converted)
[7] = organism: Homo sapiens; experiment: Selectivity ratio, ratio of Ki for CatL (unknown origin) to Ki for Cal1 (unknown origin)
[8] = AUC (0 to infinity) in CD-1 mouse at 2 mg/kg, po; assay type: ADME, organism-based; set-up: dose 2 mg/kg, route oral, time infinity; details: in vivo
[9] = Cmax in CD-1 mouse at 2 mg/kg, po; assay type: ADME, organism-based; set-up: dose 2 mg/kg, route oral; details: in vivo
[10] = target: T1, BCRP (ABCG2) (Homo sapiens, UniProt Q9UNQ0); experiment: Substrate activity at BCRP (unknown origin) expressed in MDCK2 cells assessed as efflux ratio of permeability across basolateral to apical over apical to basolateral side; assay type: ADME, cell-based
T1 sequence (Q9UNQ0 whole entry): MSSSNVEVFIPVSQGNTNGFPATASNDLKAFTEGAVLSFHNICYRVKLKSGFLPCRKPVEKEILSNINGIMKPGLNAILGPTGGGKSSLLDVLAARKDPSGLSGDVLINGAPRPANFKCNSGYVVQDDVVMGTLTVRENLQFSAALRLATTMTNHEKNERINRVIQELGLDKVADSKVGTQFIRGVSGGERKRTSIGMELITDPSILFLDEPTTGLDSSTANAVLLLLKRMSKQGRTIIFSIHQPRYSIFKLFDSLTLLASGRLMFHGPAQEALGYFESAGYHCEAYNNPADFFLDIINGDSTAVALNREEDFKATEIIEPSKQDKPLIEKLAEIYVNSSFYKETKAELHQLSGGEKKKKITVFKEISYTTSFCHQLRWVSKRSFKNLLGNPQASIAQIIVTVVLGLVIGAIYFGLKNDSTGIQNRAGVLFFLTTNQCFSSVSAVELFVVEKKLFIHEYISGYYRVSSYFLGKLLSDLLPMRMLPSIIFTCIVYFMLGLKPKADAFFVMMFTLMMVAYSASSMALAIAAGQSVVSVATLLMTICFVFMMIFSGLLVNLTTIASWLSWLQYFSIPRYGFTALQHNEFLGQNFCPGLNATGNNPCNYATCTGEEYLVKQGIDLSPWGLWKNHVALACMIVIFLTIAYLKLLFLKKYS

[11] = Cmax in Beagle dog at 1 mg/kg, po; assay type: ADME, organism-based, Canis lupus familiaris; set-up: dose 1 mg/kg, route oral; details: in vivo
[12] = AUC (0 to infinity) in CD-1 mouse at 2 mg/kg, iv; assay type: ADME, organism-based; set-up: dose 2 mg/kg, route intravenous, time infinity; details: in vivo
[13] = Metabolic stability in human liver cytosol assessed as hydroxyamide metabolite formation; assay type: ADME, subcellular
[14] = Volume of distribution at steady state in Sprague-Dawley rat at 2 mg/kg, iv; assay type: ADME, organism-based; details: in vivo, read-out: Vdss
[15] = organism: Homo sapiens; experiment: Selectivity ratio, ratio of Ki for CatK (unknown origin) to Ki for Cal1 (unknown origin)
[16] = AUC (0 to infinity) in Beagle dog at 1 mg/kg, iv; assay type: ADME, organism-based, Canis lupus familiaris; set-up: dose 1 mg/kg, time infinity, route intravenous; details: in vivo
[17] = Elimination half life in cynomolgus monkey at 3 mg/kg, po; assay type: ADME, organism-based, Macaca fascicularis; details: in vivo, read-out: beta t1/2 (converted)
[18] = AUC (0 to infinity) in cynomolgus monkey at 1 mg/kg, iv; assay type: ADME, organism-based, Macaca fascicularis; set-up: dose 1 mg/kg, time infinity, route intravenous; details: in vivo
[19] = Metabolic stability in dog hepatocytes; assay type: ADME, cell-based, Canis lupus familiaris, Hepatocyte
[20] = Volume of distribution at steady state in Beagle dog at 1 mg/kg, iv; assay type: ADME, organism-based, Canis lupus familiaris; details: in vivo, read-out: Vdss
[21] = Intrinsic clearance in human liver cytosol; assay type: ADME, subcellular; details: read-out: CLH
[22] = target: P-gp (ABCB1) (Homo sapiens, UniProt P08183); experiment: Substrate activity at P-gp (unknown origin) expressed in MDCK2 cells assessed as efflux ratio of permeability across basolateral to apical over apical to basolateral side; assay type: ADME, cell-based; details: MDCK-MDR1
Chain of P-gp (ABCB1) (P08183 whole entry): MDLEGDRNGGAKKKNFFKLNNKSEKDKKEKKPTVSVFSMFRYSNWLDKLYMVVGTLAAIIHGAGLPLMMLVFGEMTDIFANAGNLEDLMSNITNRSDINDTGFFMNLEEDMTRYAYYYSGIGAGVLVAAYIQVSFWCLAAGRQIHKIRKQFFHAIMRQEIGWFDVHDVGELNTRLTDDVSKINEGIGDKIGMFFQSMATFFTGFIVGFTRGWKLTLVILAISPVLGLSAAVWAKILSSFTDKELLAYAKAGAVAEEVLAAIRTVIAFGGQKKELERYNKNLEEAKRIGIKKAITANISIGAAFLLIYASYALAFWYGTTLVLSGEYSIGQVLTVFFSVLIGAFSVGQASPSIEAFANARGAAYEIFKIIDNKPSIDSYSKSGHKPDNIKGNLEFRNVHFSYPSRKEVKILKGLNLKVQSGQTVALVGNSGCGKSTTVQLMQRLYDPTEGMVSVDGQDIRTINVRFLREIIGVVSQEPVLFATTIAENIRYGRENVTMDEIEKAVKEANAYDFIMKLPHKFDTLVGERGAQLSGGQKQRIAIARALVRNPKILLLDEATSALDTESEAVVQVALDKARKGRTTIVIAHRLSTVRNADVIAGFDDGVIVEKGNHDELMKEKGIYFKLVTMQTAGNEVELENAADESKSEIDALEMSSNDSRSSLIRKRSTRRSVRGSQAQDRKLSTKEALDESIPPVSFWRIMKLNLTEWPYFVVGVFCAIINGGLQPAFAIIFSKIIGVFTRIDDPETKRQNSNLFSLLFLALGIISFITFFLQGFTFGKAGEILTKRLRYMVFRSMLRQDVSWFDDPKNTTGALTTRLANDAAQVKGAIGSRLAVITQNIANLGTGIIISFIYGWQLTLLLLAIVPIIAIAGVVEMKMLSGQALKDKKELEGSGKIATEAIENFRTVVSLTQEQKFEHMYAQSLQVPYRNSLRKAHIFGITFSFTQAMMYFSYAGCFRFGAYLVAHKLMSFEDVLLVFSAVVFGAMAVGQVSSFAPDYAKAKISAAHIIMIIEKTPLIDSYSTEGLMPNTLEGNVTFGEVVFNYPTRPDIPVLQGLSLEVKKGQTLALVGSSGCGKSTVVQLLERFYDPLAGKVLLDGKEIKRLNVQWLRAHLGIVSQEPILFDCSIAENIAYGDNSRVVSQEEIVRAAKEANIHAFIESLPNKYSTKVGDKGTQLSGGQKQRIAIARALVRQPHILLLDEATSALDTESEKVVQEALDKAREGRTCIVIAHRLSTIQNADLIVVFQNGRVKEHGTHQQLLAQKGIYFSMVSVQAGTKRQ

[23] = Intrinsic clearance in human liver microsomes; assay type: ADME, Microsome; details: read-out: CLH
[24] = target: T2, Calpain-1 catalytic subunit (Homo sapiens, UniProt P07384); experiment: Inhibition of Cal1 (unknown origin)
T2 sequence (P07384 whole entry): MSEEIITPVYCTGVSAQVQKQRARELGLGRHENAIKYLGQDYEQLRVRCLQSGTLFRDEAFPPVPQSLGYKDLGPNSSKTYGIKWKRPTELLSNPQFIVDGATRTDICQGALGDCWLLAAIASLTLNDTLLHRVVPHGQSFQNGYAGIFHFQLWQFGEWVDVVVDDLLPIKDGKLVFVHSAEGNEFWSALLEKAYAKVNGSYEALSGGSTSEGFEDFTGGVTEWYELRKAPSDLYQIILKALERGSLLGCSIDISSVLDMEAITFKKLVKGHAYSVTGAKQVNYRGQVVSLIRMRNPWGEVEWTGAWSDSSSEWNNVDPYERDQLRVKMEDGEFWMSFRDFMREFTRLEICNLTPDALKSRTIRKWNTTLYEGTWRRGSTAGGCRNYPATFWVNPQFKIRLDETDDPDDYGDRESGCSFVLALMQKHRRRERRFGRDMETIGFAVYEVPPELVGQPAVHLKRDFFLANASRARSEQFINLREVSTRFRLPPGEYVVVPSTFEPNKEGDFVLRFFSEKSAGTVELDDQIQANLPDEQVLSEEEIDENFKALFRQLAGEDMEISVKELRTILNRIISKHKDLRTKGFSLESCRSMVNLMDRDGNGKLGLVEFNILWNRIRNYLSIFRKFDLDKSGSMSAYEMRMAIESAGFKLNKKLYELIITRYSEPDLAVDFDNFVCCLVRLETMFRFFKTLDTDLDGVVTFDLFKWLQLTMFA

[25] = Elimination half life in Beagle dog at 1 mg/kg, po; assay type: ADME, organism-based, Canis lupus familiaris; details: in vivo, read-out: beta t1/2 (converted)
[26] = Metabolic stability in rat liver microsomes; assay type: ADME, Microsome
[27] = Elimination half life in Sprague-Dawley rat at 2 mg/kg, iv; assay type: ADME, organism-based; details: in vivo, read-out: beta t1/2 (converted)
[28] = Elimination half life in CD-1 mouse at 2 mg/kg, iv; assay type: ADME, organism-based; details: in vivo, read-out: beta t1/2 (converted)
[29] = Plasma clearance in Beagle dog at 1 mg/kg, iv; assay type: ADME, organism-based, Canis lupus familiaris
[30] = Elimination half life in Beagle dog at 1 mg/kg, iv; assay type: ADME, organism-based, Canis lupus familiaris; details: in vivo, read-out: beta t1/2 (converted)
[31] = AUC (0 to infinity) in Sprague-Dawley rat at 2 mg/kg, iv; assay type: ADME, organism-based; set-up: dose 2 mg/kg, time infinity, route intravenous; details: in vivo
[32] = AUC (0 to infinity) in cynomolgus monkey at 3 mg/kg, po; assay type: ADME, organism-based, Macaca fascicularis; set-up: dose 3 mg/kg, time infinity, route oral; details: in vivo
[33] = test system: Hippocampus; experiment: Inhibition of amyloid beta oligomer-induced reduction of synaptic transmission in rat hippocampal slices assessed as increase in glutamatergic synaptic strength at 100 nM; assay type: functional, tissue-based
[34] = Intrinsic clearance in rat liver microsomes; details: read-out: CLH
[35] = AUC (0 to infinity) in Sprague-Dawley rat at 2 mg/kg, po; assay type: ADME, organism-based; set-up: dose 2 mg/kg, time infinity, route oral; details: in vivo
[36] = Apparent permeability in human Caco2 cells; assay type: ADME, cell-based; details: Caco-2, read-out: permeability
[37] = AUC (0 to infinity) in Beagle dog at 1 mg/kg, po; assay type: ADME, organism-based, Canis lupus familiaris; set-up: dose 1 mg/kg, time infinity, route oral; details: in vivo
[38] = Plasma clearance in CD-1 mouse at 2 mg/kg, iv; assay type: ADME, organism-based
[39] = Elimination half life in CD-1 mouse at 2 mg/kg, po; assay type: ADME, organism-based; details: in vivo, read-out: beta t1/2 (converted)
[40] = Cmax in cynomolgus monkey at 3 mg/kg, po; assay type: ADME, organism-based, Macaca fascicularis; set-up: dose 3 mg/kg, route oral; details: in vivo
[41] = Oral bioavailability in CD-1 mouse at 2 mg/kg; assay type: ADME, organism-based; details: in vivo
[42] = Oral bioavailability in Beagle dog at 1 mg/kg; assay type: ADME, organism-based, Canis lupus familiaris; details: in vivo
[43] = Metabolic stability in dog liver microsomes; assay type: ADME, Canis lupus familiaris, Microsome
[44] = Volume of distribution at steady state in cynomolgus monkey at 1 mg/kg, iv; assay type: ADME, organism-based, Macaca fascicularis; details: in vivo, read-out: Vdss
[45] = Metabolic stability in rat hepatocytes; assay type: ADME, cell-based, Hepatocyte
[46] = organism: Homo sapiens; experiment: Selectivity ratio, ratio of Ki for CatB (unknown origin) to Ki for Cal1 (unknown origin)
[47] = Metabolic stability in human liver microsomes; assay type: ADME, Microsome
[48] = Elimination half life in cynomolgus monkey at 1 mg/kg, iv; assay type: ADME, organism-based, Macaca fascicularis; details: in vivo, read-out: beta t1/2 (converted)
[49] = Metabolic stability in human hepatocytes; assay type: ADME, cell-based, Hepatocyte
[50] = Metabolic stability in cynomolgus monkey hepatocytes; assay type: ADME, cell-based, Macaca fascicularis, Hepatocyte
[51] = Selectivity ratio, ratio of Ki for CatS (unknown origin) to Ki for Cal1 (unknown origin); details: Homo sapiens
[52] = Fraction unbound in human plasma; assay type: ADME, cell-free
[53] = Oral bioavailability in cynomolgus monkey at 3 mg/kg; assay type: ADME, organism-based, Macaca fascicularis; details: in vivo
[54] = Cmax in Sprague-Dawley rat at 2 mg/kg, po; assay type: ADME, organism-based; set-up: dose 2 mg/kg, route oral; details: in vivo
[55] = Plasma clearance in Sprague-Dawley rat at 2 mg/kg, iv; assay type: ADME, organism-based
[56] = Intrinsic clearance in rat liver microsomes; assay type: ADME, Microsome; details: read-out: CLH
[57] = Metabolic stability in cynomolgus monkey liver cytosol assessed as hydroxyamide metabolite formation; assay type: ADME, subcellular, Macaca fascicularis
[58] = Oral bioavailability in rat; assay type: ADME, organism-based; details: in vivo
[59] = Intrinsic clearance in cynomolgus monkey liver cytosol; assay type: ADME, subcellular, Macaca fascicularis; details: read-out: CLH

## O=C(NC1CC1)C(=O)C(Cc1ccccc1)NC(=O)[C@H]1CCC(=O)N1Cc1ccccc1 (some centres not stated)
[1]
  pIC50: 6.41
[2]
  Vd: 1 L/kg
[3]
  bioavailability: 99.6%
[4]
  clearance: 33 mL/min/kg
[5]
  Stability: Stable
[6]
  half-life: 5.1 h
[7]
  Selectivity ratio: 42
[8]
  AUC(0-inf): 14500 ng·h/mL
[9]
  Cmax: 2300 ng/mL
[10]
  efflux ratio: 0.9
[11]
  Cmax: 980 ng/mL
[12]
  AUC(0-inf): 15400 ng·h/mL
[13]
  Stability: Stable
[14]
  Vd: 3.4 L/kg
[15]
  Selectivity ratio: 74
[16]
  AUC(0-inf): 1820 ng·h/mL
[17]
  half-life: 1.3 h
[18]
  AUC(0-inf): 510 ng·h/mL
[19]
  Stability: Stable
[20]
  Vd: 0.6 L/kg
[21]
  microsomal CLint: < 1 µL/min/mg
[22]
  efflux ratio: 10.5
[23]
  microsomal CLint: 28 µL/min/mg
[24]
  pKi: 6.89
[25]
  half-life: 4.8 h
[26]
  Stability: Stable
[27]
  half-life: 6.6 h
[28]
  half-life: 6 h
[29]
  clearance: 10.2 mL/min/kg
[30]
  half-life: 1.7 h
[31]
  AUC(0-inf): 1930 ng·h/mL
[32]
  AUC(0-inf): 220 ng·h/mL
[33]
  inhibition: Active
[34]
  microsomal CLint: < 23 µL/min/mg
[35]
  AUC(0-inf): 1910 ng·h/mL
[36]
  Papp: 9.4 ×10⁻⁶ cm/s
[37]
  AUC(0-inf): 1510 ng·h/mL
[38]
  clearance: 2.17 mL/min/kg
[39]
  half-life: 5 h
[40]
  Cmax: 98 ng/mL
[41]
  bioavailability: 93.5%
[42]
  bioavailability: 83.1%
[43]
  Stability: Stable
[44]
  Vd: 1.8 L/kg
[45]
  Stability: Stable
[46]
  Selectivity ratio: 42
[47]
  Stability: Stable
[48]
  half-life: 2.3 h
[49]
  Stability: Stable
[50]
  Stability: Stable
[51]
  Selectivity ratio: > 100
[52]
  fraction unbound: 0.3
[53]
  bioavailability: 14.3%
[54]
  Cmax: 530 ng/mL
[55]
  clearance: 17.3 mL/min/kg
[56]
  microsomal CLint: < 23 µL/min/mg
[57]
  Stability: Stable

## NC(=O)C(=O)C(Cc1ccccc1)NC(=O)[C@H]1CCC(=O)N1Cc1ccccc1 (mixture of isomers)
[7]
  Selectivity ratio: 15
[15]
  Selectivity ratio: 22
[21]
  microsomal CLint: > 70 µL/min/mg
[23]
  microsomal CLint: 27 µL/min/mg
[24]
  pKi: 7.41
[58]
  bioavailability: 45%
[46]
  Selectivity ratio: 23
[51]
  Selectivity ratio: 103
[59]
  microsomal CLint: 185 µL/min/mg
[56]
  microsomal CLint: < 23 µL/min/mg
